Entries after “also recorded” stand apart in the source; their conditions may differ.
Tests used:
OPA1-EGFP protein = target: T1, OPA1-EGFP protein (Homo sapiens, UniProt O60313); test: Microscale thermophoresis (MST) affinity to purified OPA1-EGFP protein; type: binding; conditions: FIG. 20
T1 construct: Flag; His; made in house; host or cells: HEK293T
T1 sequence (O60313 88-960): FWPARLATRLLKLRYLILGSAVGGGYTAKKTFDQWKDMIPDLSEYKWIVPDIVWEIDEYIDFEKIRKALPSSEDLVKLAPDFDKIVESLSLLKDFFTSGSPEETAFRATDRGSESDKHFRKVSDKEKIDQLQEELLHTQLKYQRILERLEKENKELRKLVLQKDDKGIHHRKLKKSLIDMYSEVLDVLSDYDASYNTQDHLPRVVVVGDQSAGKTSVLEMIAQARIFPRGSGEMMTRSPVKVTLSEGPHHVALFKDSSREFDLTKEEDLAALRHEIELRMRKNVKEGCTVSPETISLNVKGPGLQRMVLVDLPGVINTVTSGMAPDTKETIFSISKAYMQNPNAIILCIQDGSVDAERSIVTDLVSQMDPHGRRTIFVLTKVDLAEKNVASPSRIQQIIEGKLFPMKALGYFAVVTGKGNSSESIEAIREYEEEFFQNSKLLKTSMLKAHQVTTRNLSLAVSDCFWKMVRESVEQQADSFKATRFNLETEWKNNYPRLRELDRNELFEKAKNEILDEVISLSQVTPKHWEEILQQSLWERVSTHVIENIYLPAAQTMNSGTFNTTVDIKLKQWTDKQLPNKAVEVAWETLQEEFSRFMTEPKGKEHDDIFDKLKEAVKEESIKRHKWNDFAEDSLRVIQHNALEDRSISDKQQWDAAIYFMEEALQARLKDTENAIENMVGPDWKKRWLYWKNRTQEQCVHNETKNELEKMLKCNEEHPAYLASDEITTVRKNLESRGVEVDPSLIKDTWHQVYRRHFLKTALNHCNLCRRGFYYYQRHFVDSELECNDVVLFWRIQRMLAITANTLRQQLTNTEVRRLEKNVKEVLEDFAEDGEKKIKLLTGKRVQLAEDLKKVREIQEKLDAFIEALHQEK
Description: An OPA1-EGFP protein was subjected to eukaryotic purification, and an interaction between the target protein and a small molecule compound was detected by microscale thermophoresis (MST) to obtain an affinity parameter, namely a KD value, of the two.
A full-length sequence of OPA1 (NM_015560.2) was obtained by PCR from cDNA derived from HEK293T and then subjected to homologous recombination into a pcDNA3.1-Flag/His-EGFP empty vector to successfully construct a pcDNA3.1-OPA1-Flag/His-EGFP eukaryotic expression vector.
A Flag/His-OPA1-EGFP protein was overexpressed in HEK293T. After transfection for 48 hours, cells were collected and lysed. A protein supernatant was transferred to a new 15 mL centrifuge tube, Flag-beads were added, and incubation was performed on a turntable at 4° C. for 6-8 hours. Then, the supernatant was discarded with a magnetic grate. […] The purified protein was identified and quantified through electrophoresis gel running and a Coomassie brilliant blue staining experiment (FIG. 20A).
The derivative DNJ-1 (mother solution at 30 mM/L) was diluted 150-fold with Binding Buffer to serve as an initial concentration of tube 1. […] 10 μL of the 40 nM purified EGFP-OPA1 mixture was added into each tube and analyzed by a Monolith NT.115 instrument. The Kd value was calculated. […]

[1] = system: MT-RNR2 mutant HCM-Cybrids; test: JC-10 mitochondrial membrane potential, polyclonal secondary screening (3 HCM-Cybrids clones); type: cell-based, human; conditions: 30 μM, 24 hours, 3 HCM-Cybrids cell clones, FIG. 17
Description: Polyclonal secondary screening results of different DNJ derivatives on the mitochondrial membrane potential of MT-RNR2 mutant HCM-Cybrids.
(§1) A method for detecting the mitochondrial membrane potential was the same as that previously described in Example 3. A difference is that 3 HCM-Cybrids cell clones were applied herein for detection to achieve the purpose of making the results more reliable. […] Next, the focus was on DNJ-1 and DNJ-5a to improve the situations of the membrane potential of Cybrids cells in a normal group and the addition of FCCP in different groups, as shown in FIG. 17B.
(§2) An operation method in FIG. 17B is as follows. 30 μM DNJ-1 and DNJ-5a drugs were added into Con-Cybrids and HCM-Cybrids cells, and after 24 hours, 50 μL of 10 μM FCCP diluted with a culture medium was added into 3 duplicate wells in each group. The FCCP, as a decoupling agent, was capable of disrupting the formation of mitochondrial membrane potential. 50 μL of a culture medium was added into 3 cloned duplicate wells in each group. The cells were placed in an environment with 5% of CO2 for culture at 37° C. for 30 min. 100×compound A (JC-10) was diluted with compound B (JC-10 Buffer A). A diluted liquid was added into a well plate at 25 μl per well. The cells were placed in an environment with 5% of CO2 for culture at 37° C. for 30 min. Before loading on a machine, JC-10 Buffer B was added into the well plate at 25 μL per well. Fluorescence values corresponding to Ex/Em=490 nm/525 nm and 540 nm/590 nm were detected by a microplate reader. After a corresponding blank control group was subtracted for each well, PL590/PL525 was compared.

Con-Cybrids = test: JC-10 mitochondrial membrane potential in control cybrids; type: cell-based, human; conditions: 30 μM, 24 hours, FIG. 17B
Description: as §1
as §2, with “After a corresponding blank control group was subtracted for each well, PL590/PL525 was compared.” left out

SMILES: CC(C)(C)C(=O)OC[C@H]1NC[C@H](O)[C@@H](O)[C@@H]1O [DNJ-5a, ((2R,3R,4R,5S)-3,4,5-trihydroxypiperidin-2-yl)methyl pivalate]
- Kd value compared with the lead compound DNJ (OPA1-EGFP protein): significantly decreased
- enhancement effect on the mitochondrial membrane potential (PL590/PL525) [1]: significantly enhance; also recorded: most significant enhancement effects
- impact on the mitochondrial membrane potential of Con-Cybrids (Con-Cybrids): no impact

SMILES: O=C(CCCC[C@@H]1CCSS1)N1C[C@H](O)[C@@H](O)[C@H](O)[C@H]1CO [DNJ-1, 5-((R)-1,2-dithiolan-3-yl)-1-((2R,3R,4R,5S)-3,4,5-trihydroxy-2-(hydroxymethyl)piperidin-1-yl) p entan-1-one]
- Kd value compared with the lead compound DNJ (OPA1-EGFP protein): significantly decreased
- enhancement effect on the mitochondrial membrane potential (PL590/PL525) [1]: significantly enhance; also recorded: most significant enhancement effects
- impact on the mitochondrial membrane potential of Con-Cybrids (Con-Cybrids): no impact

Source: patent publication US20260209177A1, “1-DEOXYNOJIRIMYCIN DERIVATIVE AND USE THEREOF” (ZHEJIANG UNIVERSITY, priority 2022, published 2026)
